# Laboratory results from patent US7355001B2, “Organic anion transport protein TCH229” (Takeda Pharmaceutical Company Limited, priority 2002, dated 2008).
# Experiments:
# human TCH229 [1] = assay: Expression of human TCH229 gene in RPTEC stimulated with stimulants (TaqMan PCR); assay type: cell-based; details: stimulant 10 ng/ml, 0.5-8 hours after addition
# Experimental: (§1) (2) Preparation of cDNA from Normal Human Cells Stimulated with Various Stimulants a) Renal proximal tubular epithelial cell (RPTEC) and human renal cortical epithelial cell (HRCE) (both available from Cambrex BioScience Walkersvill) were plated on a 24-well collagen-coated plate in 1×10^5 cells/well and then cultured overnight, and after the medium was replaced by […] (T3)-free Bullet Kit REGM (BIO WHITTAKER), the cells were cultured for additional 30 minutes. b) As stimulants, TGF-β1 (Wako Pure Chemical Industries, Ltd.), TNF-α (Genzyme), IL-1β (Genzyme), IL-6 (Genzyme) and PMA (Wako Pure Chemical Industries, Ltd.) were used. A solution was prepared by diluting each of these 5 stimulants at the final concentration of 10 ng/ml with T3-free Bullet Kit REGM (BIO WHITTAKER). c) Just after the culture supernatants of the RPTEC and HRCE in the above item a) were removed, the solution prepared in the above item b) was added in a volume of 500 μl/well, and the cells were cultured. As the control, a mixture of the 5 stimulants dissolved in a solvent was diluted at the same ratio as the stimulants with T3-free Bullet Kit REGM (BIO WHITTAKER) to prepare a solution, and 500 μl of the solution was added to each well of RPTEC and HRCE, and the cells were cultured. d) 0.5, 1, 2, 4, 6 and 8 hours after addition of the stimulants, the cells were recovered respectively, and total RNA was prepared by using RNeasy Mini Kit (Quiagen). The total RNA thus prepared was subjected to reverse transcription reaction using TaqMan Reverse Transcription Reagents (manufactured by Applied Biosystems, Inc.) to prepare the cDNA. (3) Analysis of Expression of Human TCH229 Gene in Commercially Available Normal Human Cells
# (§2) The expression level (copy number) of human TCH229 in the cDNAs prepared from the normal human cells and the PRTEC and HRCE stimulated with the stimulants was measured by TaqMan PCR with the 2 primer DNAs used in Example 4 (that is, primer TMF (SEQ ID NO: 19) and primer TMR (SEQ ID NO: 20)) and TaqMan probe P1 (SEQ ID NO: 21). For the cDNAs prepared respectively from the normal human cells and the PRTEC and HRCE stimulated with the stimulants, the expression level (copy number) of ribosomal RNA (18S) was assayed by using Eukaryotic 18S rRNA Pre-Developed TaqMan Assay Reagents (manufactured by Applied Biosystems, Inc.), and the expression level (copy number) of human glyceraldehyde-3-phosphate dehydrogenase (GAPDH) was also assayed by using human GAPD (GAPDH) (manufactured by Applied Biosystems, Inc.). […]
# human TCH229 [2] = assay: Expression of human TCH229 gene in HRCE stimulated with stimulants (TaqMan PCR); assay type: cell-based; details: stimulant 10 ng/ml, 0.5-8 hours after addition
# Experimental: as §1, §2
Molecule,"fluctuation of expression of human TCH229 (mRNA, relative to human GAPDH) as compared with the control (human TCH229 [1])","fluctuation of expression of human TCH229 (mRNA, relative to human GAPDH) as compared with the control (human TCH229 [2])"
CCCCCCCCCCCCCC(=O)O[C@@H]1[C@@H](C)[C@@]2(O)[C@@H](C=C(CO)C[C@]3(O)C(=O)C(C)=C[C@@H]23)[C@@H]2C(C)(C)[C@]12OC(C)=O [PMA],decreased depending on culture time,decreased depending on culture time
"IL-1β: stimulant, IL-1β (Genzyme)",decreased depending on culture time,decreased depending on culture time
"TGF-β1: stimulant, TGF-β1 (Wako Pure Chemical Industries, Ltd.)",decreased depending on culture time,decreased depending on culture time
TNF-α,decreased depending on culture time,decreased depending on culture time
